Laboratory results taken from ChEMBL document CHEMBL4706721, “Novel Pyridazinones as TRPC5 Inhibitors for Treating Kidney Diseases” (ACS Med Chem Lett, 2021).

biological target: T1, Short transient receptor potential channel 5 (Homo sapiens, UniProt Q9UL62); assay: Inhibition of human TRPC5 expressed in HEK293-T-REx cells assessed as decrease in riluzole-induced calcium response preincubated for 5 min followed by riluzole stimulation by Fluo-4 AM dye based FLIPR assay; type: cell-based
T1 sequence (Q9UL62 whole entry): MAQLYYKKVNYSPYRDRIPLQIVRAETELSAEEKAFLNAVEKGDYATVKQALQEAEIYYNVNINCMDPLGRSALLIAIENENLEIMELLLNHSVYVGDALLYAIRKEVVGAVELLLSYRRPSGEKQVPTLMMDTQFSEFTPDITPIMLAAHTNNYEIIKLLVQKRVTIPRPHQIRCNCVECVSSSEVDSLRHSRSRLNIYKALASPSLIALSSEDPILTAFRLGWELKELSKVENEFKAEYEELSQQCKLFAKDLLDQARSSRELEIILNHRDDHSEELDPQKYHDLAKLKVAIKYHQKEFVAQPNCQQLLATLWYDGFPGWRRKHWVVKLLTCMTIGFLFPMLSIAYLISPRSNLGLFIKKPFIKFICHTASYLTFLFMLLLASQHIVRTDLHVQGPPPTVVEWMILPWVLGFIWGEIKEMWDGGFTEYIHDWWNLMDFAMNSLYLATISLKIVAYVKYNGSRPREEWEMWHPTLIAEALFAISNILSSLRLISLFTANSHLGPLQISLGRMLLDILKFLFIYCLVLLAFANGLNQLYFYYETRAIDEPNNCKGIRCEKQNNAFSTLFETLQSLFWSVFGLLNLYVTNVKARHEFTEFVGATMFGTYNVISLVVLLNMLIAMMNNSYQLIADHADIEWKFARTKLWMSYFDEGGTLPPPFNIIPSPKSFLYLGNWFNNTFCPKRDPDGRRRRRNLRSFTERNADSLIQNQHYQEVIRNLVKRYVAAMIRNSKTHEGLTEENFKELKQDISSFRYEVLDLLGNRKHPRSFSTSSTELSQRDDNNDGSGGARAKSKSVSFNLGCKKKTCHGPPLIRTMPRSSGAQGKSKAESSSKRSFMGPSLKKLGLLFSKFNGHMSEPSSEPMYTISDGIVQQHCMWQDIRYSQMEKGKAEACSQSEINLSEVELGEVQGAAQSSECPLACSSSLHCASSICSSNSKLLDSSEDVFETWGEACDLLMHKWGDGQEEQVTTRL

IC50, ≤ 50 nM:
O=c1[nH]ncc(N2CCc3c(ncnc3N(CCO)c3ccc(F)cc3C(F)(F)F)C2)c1Cl, O=c1[nH]ncc(N2CCc3c(ncnc3Oc3ccccc3C(F)(F)F)C2)c1Cl, O=c1[nH]ncc(N2CCc3c(ncnc3Oc3ccc(F)cc3Cl)C2)c1Cl, CN(c1cnccc1C(F)(F)F)c1ncnc2c1CCN(c1cn[nH]c(=O)c1Cl)C2, CCc1c(F)cccc1Oc1ncnc2c1CCN(c1cn[nH]c(=O)c1Cl)C2
